Results published in patent US9018383B2, “Acylamino-substituted cyclic carboxylic acid derivatives and their use as pharmaceuticals” (Sanofi, priority 2009, dated 2015).

The molecules below were run against human Edg-2 receptor (Homo sapiens, UniProt Q92633) (assay: Determination of Edg-2 receptor inhibition by FLIPR measurements (LPA-mediated calcium liberation)). Settings: CHO cells overexpressing human Edg-2 receptor, LPA 100 nM, fluo-4 calcium fluorescence; read-out: Inhibitory concentrations IC50 for inhibition of the Edg-2 receptor.
Sequence of human Edg-2 receptor (Q92633 whole entry): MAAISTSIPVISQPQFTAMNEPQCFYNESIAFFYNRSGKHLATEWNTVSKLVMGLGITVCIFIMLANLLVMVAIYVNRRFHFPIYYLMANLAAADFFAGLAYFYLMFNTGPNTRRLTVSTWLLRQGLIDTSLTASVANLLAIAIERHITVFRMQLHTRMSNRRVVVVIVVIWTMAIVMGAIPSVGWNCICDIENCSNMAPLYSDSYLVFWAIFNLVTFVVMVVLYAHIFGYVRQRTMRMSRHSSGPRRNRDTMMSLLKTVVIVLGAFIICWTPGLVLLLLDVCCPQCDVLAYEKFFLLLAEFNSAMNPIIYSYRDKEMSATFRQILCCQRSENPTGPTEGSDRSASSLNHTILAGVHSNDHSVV
Assay type: cell-based
How it was run: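 CHO cells stably overexpressing human Edg-2, loaded with fluo-4 AM, were pre-incubated ~5 min with compound (≤0.3% DMSO), then stimulated with 100 nM LPA 18:1 in HBSS/HEPES/probenecid, pH 7.5. Peak calcium fluorescence over ~3 min, baseline-corrected, versus DMSO gave % inhibition; IC50 from triplicates.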
Molecule `COc1ncc(C(=O)N[C@]2(C(=O)O)CC[C@H](C(F)(F)F)CC2)cc1-c1cccc(Cl)c1Cl` [Example 378] has an IC50 of under 100 nM.
`C[C@H]1CC[C@@](NC(=O)c2ccc(OCCO)c(OCCc3ccccc3)c2)(C(=O)O)CC1` [Example 420, trans-1-[4-(2-Hydroxy-ethoxy)-3-phenethyloxy-benzoylamino]-4-methyl-cyclohexanecarboxylic acid] showed an IC50 of 100 to 1000 nM.
`COc1ncc(C(=O)N[C@]2(C(=O)O)CC[C@@H](C)CC2)cc1OCCc1cc(OC(F)(F)F)ccc1F` [Example 82, trans-1-({5-[2-(2-Fluoro-5-trifluoromethoxy-phenyl)-ethoxy]-6-methoxy-pyridine-3-carbonyl}-amino)-4-methyl-cyclohexanecarboxylic acid] gave an IC50 of under 100 nM.
For `COc1ccc(C(=O)NC2(C(=O)O)CCC(C(C)C)CC2)cc1OCCc1cccc(C)c1` (centres unmarked) [Example 370], the IC50 was under 100 nM.
`CC[C@H]1CC[C@@](NC(=O)c2ccc(OC)c(-c3ccc(OC)c(Cl)c3)c2)(C(=O)O)CC1` [Example 352] showed an IC50 of under 100 nM.
For `COc1ccc(-c2cncc(C(=O)N[C@]3(C(=O)O)CC[C@H](C(F)(F)F)CC3)c2)cc1Cl` [Example 451, 1-{[5-(3-Chloro-4-methoxy-phenyl)-pyridine-3-carbonyl]-amino}-4-trifluoromethyl-cyclohexanecarboxylic acid], the IC50 was under 100 nM.
Molecule `COc1cc(F)c(-c2cc(C(=O)N[C@]3(C(=O)O)CC[C@@H](C)CC3)ccc2C(F)(F)F)c(F)c1` [Example 444, 1-[(2′,6′-Difluoro-4′-methoxy-6-trifluoromethyl-biphenyl-3-carbonyl)-amino]-4-methyl-cyclohexanecarboxylic acid] has an IC50 of 100 to 1000 nM.
In the case of `Cc1cccc(CCOc2cc(C(=O)NC3(C(=O)O)CCCCCC3)cc3c2OC(F)(F)O3)c1` [Example 455, 1-{[2,2-Difluoro-7-(2-m-tolyl-ethoxy)-benzo[1,3]dioxole-5-carbonyl]-amino}-cycloheptanecarboxylic acid], the IC50 is reported as under 100 nM.
`COc1ccc(-c2cc(C(=O)N[C@]3(C(=O)O)CC[C@@H](C)CC3)cc(F)c2OC)cc1Cl` [Example 446, Trans-1-[(3′-Chloro-5-fluoro-6,4′-dimethoxy-biphenyl-3-carbonyl)-amino]-4-methyl-cyclohexanecarboxylic acid] gave an IC50 of under 100 nM.
`CC[C@H]1CC[C@](NC(=O)c2cc3c(c(-c4ccc(OC)c(Cl)c4)c2)OC(F)(F)O3)(C(=O)O)CC1` [Example 463, Cis-1-{[7-(3-Chloro-4-methoxy-phenyl)-2,2-difluoro-benzo[1,3]dioxole-5-carbonyl]-amino}-4-ethyl-cyclohexanecarboxylic acid] gave an IC50 of under 100 nM.
With `COc1ccc(C(=O)NC2(C(=O)O)CCC(C(F)(F)F)CC2)cc1OCCc1cccc(C)c1` (centres unmarked) [Example 28] the IC50 was under 100 nM.
For `COc1ccc(C(=O)NC2(C(=O)O)CCCCCC2)cc1OCCc1ccccc1Cl` [Example 364], the IC50 was under 100 nM.
For `COc1ccc(C(=O)NC2(C(=O)O)CCSCC2)cc1OCCc1cccc(C)c1` [Example 36], the IC50 was 100 to 1000 nM.
Work on `COc1ncc(C(=O)N[C@]2(C(=O)O)CC[C@H](C(F)(F)F)CC2)cc1-c1cc(F)c(F)c(F)c1` [Example 375] yielded an IC50 of under 100 nM.
In the case of `CC[C@H]1CC[C@](NC(=O)c2cnc(OCCO)c(-c3cccc(C(F)(F)F)c3)c2)(C(=O)O)CC1` [Example 413, 4-Ethyl-1-{[6-(2-hydroxy-ethoxy)-5-(3-trifluoromethyl-phenyl)-pyridine-3-carbonyl]-amino}-cyclohexanecarboxylic acid], the IC50 is reported as under 100 nM.
`COc1ncc(C(=O)N[C@]2(C(=O)O)CC[C@H](C(F)(F)F)CC2)cc1OCCc1cccc(C)c1` [Example 402, cis-1-{[6-Methoxy-5-(2-m-tolyl-ethoxy)-pyridine-3-carbonyl]-amino}-4-trifluoromethyl-cyclohexanecarboxylic acid] was tested, and the IC50 was under 100 nM.
Work on `COc1ccc(-c2cc(C(=O)N[C@]3(C(=O)O)CC[C@@H](C)CC3)ccc2OC2CC(F)(F)C2)cc1Cl` [Example 443, Trans-1-{[3′-Chloro-6-(3,3-difluoro-cyclobutoxy)-4′-methoxy-biphenyl-3-carbonyl]-amino}-4-methyl-cyclohexanecarboxylic acid] yielded an IC50 of 100 to 1000 nM.
`COc1ccc(C(=O)NC2(C(=O)O)CCC(OC)CC2)cc1OCCc1cccc(C)c1` (centres unmarked) [Example 374] showed an IC50 of under 100 nM.
`COc1ncc(C(=O)N[C@]2(C(=O)O)CC[C@@H](C)CC2)cc1-c1cc(F)c(F)c(F)c1` [Example 314] showed an IC50 of under 100 nM.
Molecule `COc1ccc(C(=O)NC2(C(=O)O)CCC(C)(C)CC2)cc1OCCc1cccc(C)c1` [Example 45] has an IC50 of 100 to 1000 nM.
`CC[C@H]1CC[C@](NC(=O)c2ccc(C3COC3)c(OCCc3cccc(C)c3)c2)(C(=O)O)CC1` [Example 130, cis-4-Ethyl-1-[4-oxetan-3-yl-3-(2-m-tolyl-ethoxy)-benzoylamino]-cyclohexanecarboxylic acid] gave an IC50 of under 100 nM.
Work on `COc1ncc(C(=O)N[C@]2(C(=O)O)CC[C@H](C)CC2)cc1OCCc1cc(C)ccc1C` [Example 86, cis-1-({5-[2-(2,5-Dimethyl-phenyl)-ethoxy]-6-methoxy-pyridine-3-carbonyl}-amino)-4-methyl-cyclohexanecarboxylic acid] yielded an IC50 of 1000 to 30000 nM.
`COc1ccc(C(=O)NC2(C(=O)O)CCCCCCC2)cc1OCCc1cccc(C)c1` [Example 23, 1-[4-Methoxy-3-(2-m-tolyl-ethoxy)-benzoylamino]-cyclooctanecarboxylic acid] was tested, and the IC50 was 100 to 1000 nM.
`COc1ncc(C(=O)N[C@]2(C(=O)O)CC[C@H](C)CC2)cc1OCCc1cccc(Cl)c1` [Example 356, cis-1-({5-[2-(3-Chloro-phenyl)-ethoxy]-6-methoxy-pyridine-3-carbonyl}-amino)-4-methyl-cyclohexanecarboxylic acid] gave an IC50 of under 100 nM.
`COc1ccc(C(=O)NC2(C(=O)O)CCCC2OCc2ccccc2)cc1OCCc1cccc(C)c1` (single isomer, unassigned) [Example 66, 2-Benzyloxy-1-[4-methoxy-3-(2-m-tolyl-ethoxy)-benzoylamino]-cyclopentanecarboxylic acid] was tested, and the IC50 was 100 to 1000 nM.
`COc1ccc(C(=O)NC2(C(=O)O)CCC2)cc1OCCc1cccc(C)c1` [Example 34] showed an IC50 of 1000 to 30000 nM.
Molecule `COc1ccc(C(=O)NC2(C(=O)O)CCCCCC2)cc1OCCc1ccccc1F` [Example 13] has an IC50 of under 100 nM.
For `CC[C@@H]1C[C@]1(NC(=O)c1ccc(OC)c(-c2cccc(C(F)(F)F)c2)c1)C(=O)O` [Example 427, (1R,2R)-2-Ethyl-1-[(6-methoxy-3′-trifluoromethyl-biphenyl-3-carbonyl)-amino]-cyclopropanecarboxylic acid], the IC50 was 100 to 1000 nM.
In the case of `COc1ncc(C(=O)N[C@]2(C(=O)O)CC[C@@H](C)CC2)cc1OCCc1ccccc1` [Example 83, trans-1-{[6-Methoxy-5-(2-phenyl-ethoxy)-pyridine-3-carbonyl]-amino}-4-methyl-cyclohexanecarboxylic acid], the IC50 is reported as under 100 nM.
In the case of `COc1ccc(C(=O)NC2(C(=O)O)CCCCCC2)cc1OCCc1cccc(F)c1` [Example 365], the IC50 is reported as 100 to 1000 nM.
`CC[C@H]1CC[C@](NC(=O)c2ccc(OC)c(-c3ccc(OC)c(Cl)c3)c2)(C(=O)O)CC1` [Example 351] gave an IC50 of under 100 nM.
`CC[C@H]1CC[C@@](NC(=O)c2cnc(OC)c(-c3cccc(OC(F)(F)F)c3)c2)(C(=O)O)CC1` [Example 306] gave an IC50 of under 100 nM.
